Source: paper PMC11357054, “Azobenzenesulfonamide Carbonic Anhydrase Inhibitors as New Weapons to Fight Helicobacter pylori: Synthesis, Bioactivity Evaluation, In Vivo Toxicity, and Computational Studies” (Pharmaceuticals, 2024)
pKi: −log10 of the molar value. Converted amounts (≈) assume the structure as drawn. Where two headings read alike, the source gives them in different places.

Columns and labels:
[1] = target: T1, EcoβCA (Escherichia coli, UniProt P61517); assay: stopped-flow CO2 hydration; type: biochemical; conditions: read-out: KI (nM) * / Bacterial Isoforms / Eco βCA
T1 construct: gene can; recombinant, obtained in-house

[2] = target: T2, PgiβCA; assay: stopped-flow CO2 hydration; type: biochemical, Porphyromonas gingivalis; conditions: pH […] HEPES, […] Na2SO4, […] min preincubation, r.t.; read-out: KI (nM) * / Bacterial Isoforms / Pgi βCA
T2 construct: gene PgiCAb; recombinant, obtained in-house

[3] = target: T3, hCA IX (Homo sapiens, UniProt Q16790); assay: stopped-flow CO2 hydration; type: biochemical; conditions: read-out: KI (nM) * / Human Isoforms / hCA IX
T3 construct: gene CA9
Description: stopped-flow CO2 hydration on hCA IX

[4] = target: T4, hCA XII (Homo sapiens, UniProt O43570); assay: stopped-flow CO2 hydration; type: biochemical; conditions: read-out: KI (nM) * / Human Isoforms / hCA XII
T4 construct: gene CA12
Description: stopped-flow CO2 hydration on hCA XII

[5] = target: T5, PsCA3 (Pseudomonas aeruginosa, UniProt Q9HVB9); assay: stopped-flow CO2 hydration; type: biochemical; conditions: read-out: KI (nM) * / Bacterial Isoforms / Ps CA3
T5 construct: gene PA4676; recombinant, obtained in-house
T5 sequence (Q9HVB9 1-215): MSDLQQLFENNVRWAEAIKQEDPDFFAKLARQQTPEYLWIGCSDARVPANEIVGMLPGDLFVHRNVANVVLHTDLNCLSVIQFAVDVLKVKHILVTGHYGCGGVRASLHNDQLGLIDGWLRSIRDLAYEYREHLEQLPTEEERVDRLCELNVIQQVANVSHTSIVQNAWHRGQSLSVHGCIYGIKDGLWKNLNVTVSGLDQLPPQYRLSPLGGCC

[6] = target: T6, hCA I (Homo sapiens, UniProt P00915); assay: stopped-flow CO2 hydration; type: biochemical; conditions: read-out: KI (nM) * / Human Isoforms / hCA I
T6 construct: gene CA1; purchased from Merck
Description: stopped-flow CO2 hydration on hCA I

[7] = target: T7, HpαCA (Helicobacter pylori, UniProt B5Z8I0); assay: stopped-flow CO2 hydration; type: biochemical
T7 construct: gene HPG27_1129; recombinant, obtained in-house; PDB 4XFW is given for docking only
T7 sequence (B5Z8I0 22-247): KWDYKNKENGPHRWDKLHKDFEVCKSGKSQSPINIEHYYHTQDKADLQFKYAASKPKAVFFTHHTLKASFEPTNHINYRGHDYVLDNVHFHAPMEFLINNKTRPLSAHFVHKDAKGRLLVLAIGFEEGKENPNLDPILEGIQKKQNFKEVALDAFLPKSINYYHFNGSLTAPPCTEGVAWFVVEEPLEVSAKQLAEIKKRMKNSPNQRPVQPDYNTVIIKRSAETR

[8] = target: T8, PgiγCA; assay: stopped-flow CO2 hydration; type: biochemical, Porphyromonas gingivalis; conditions: pH […] HEPES, […] Na2SO4, […] min preincubation, r.t.; read-out: KI (nM) * / Bacterial Isoforms / Pgi γCA
T8 construct: gene PgiCA; recombinant, obtained in-house

[9] = system: T9, H. pylori ATCC 43504; assay: microbe, parasite or virus in culture; parameters: species or system Helicobacter pylori ATCC 43504; MIC by broth microdilution, alamarBlue and CFU count; MBC by CFU count; conditions: Helicobacter pylori, ATCC43504
T9 construct: ATCC 43504
Procedure: H. pylori ATCC 43504 was cultured on a Columbia Agar base (Becton Dickinson and Company, Franklin Lakes, NJ, USA) supplemented with 10% horse serum (Merck, St. Louis, MO, USA) and 0.25% yeast extract (Oxoid Ltd., Hampshire, UK), incubated at 37 °C for 72 h in a microaerophilic atmosphere (CampyGen, Thermo Fisher Scientific, Milan, Italy). Colonies were collected and transferred into 10 mL of Brain Heart Infusion broth (BHI, Oxoid Ltd., Hampshire, UK) supplemented with 5% (v/v) of fetal bovine serum (FBS, Merck, Milan, Italy) and incubated overnight at 37 °C, at 125 rpm under microaerophilic conditions. After 18 h of incubation, the broth culture was diluted to obtain a bacterial suspension of 10^6 CFU/mL. MICs were determined by three different assays: the broth micro-dilution method, the alamarBlue assay, and the CFU count. […] This bacterium was selected based on the inhibitory potency evidenced by the two series of azobenzenesulfonamides against the HpCAs.

[10] = target: T10, HpβCA (Helicobacter pylori, UniProt Q9ZN54); assay: stopped-flow CO2 hydration; type: biochemical; conditions: read-out: KI (nM) * / Bacterial Isoforms / Hp βCA
T10 construct: gene cynT; recombinant, obtained in-house
T10 sequence (Q9ZN54 1-221): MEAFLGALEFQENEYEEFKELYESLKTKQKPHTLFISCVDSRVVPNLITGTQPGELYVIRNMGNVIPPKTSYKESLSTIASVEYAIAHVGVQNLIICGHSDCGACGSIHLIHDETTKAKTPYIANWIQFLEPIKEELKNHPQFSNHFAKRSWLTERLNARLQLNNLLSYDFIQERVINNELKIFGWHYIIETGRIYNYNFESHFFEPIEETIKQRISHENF

[11] = target: T11, hCA II (Homo sapiens, UniProt P00918); assay: stopped-flow CO2 hydration; type: biochemical; conditions: read-out: KI (nM) * / Human Isoforms / hCA II
T11 construct: gene CA2; purchased from Merck
Description: stopped-flow CO2 hydration on hCA II

[12] = target: T4, hCA XII; assay: biochemical; conditions: read-out: Human Isoforms / hCA XII
Procedure: (§1) An Applied Photophysics stopped-flow instrument was used to evaluate the ability of the test compounds to inhibit CA-catalyzed CO2 hydration. […] The CO2 concentrations ranged from 1.7 to 17 mM for the determination of the kinetic parameters and inhibition constants. Enzyme concentrations spanned from 5 to 12 nM. Stock solutions of the inhibitor (0.1 mM) were prepared in distilled–deionized water, and dilutions up to 0.01 nM were prepared with the assay buffer. Inhibitor and enzyme solutions were preincubated for 15 min at r.t. for the formation of the E–I complex. The inhibition constants were obtained by non-linear least-squares methods using PRISM 3 and the Cheng–Prusoff equation and represent the mean from at least three different determinations. Apart from human CAs I and II purchased from Merck, all the bacterial CAs were recombinant and obtained in-house. Compounds 4a–j and 5a–j were tested on a large panel of human and bacterial isoenzymes belonging to different CA families, evaluating their inhibitory activity through the CO2 hydration activity assay by means of the stopped-flow technique, and the inhibitory constants (KIs) are reported in Table 1 and Table 2, respectively. In particular, we tested the hypoxic tumor-associated hCAs IX and XII, and bacterial isoforms involved in several infectious diseases, such as those caused by H. pylori (HpαCA and HpβCA), Porphyromonas gingivalis (PgiβCA and PgiγCA), Escherichia coli (EcoβCA), Pseudomonas aeruginosa (PsCA3, belonging to the β-class), Mammaliicoccus (Staphylococcus) sciuri (MscCA, belonging to the β-class), and Streptococcus mutans (SmuCA, belonging to the β-class). The inhibition of human physiologically relevant isoforms I and II was also investigated in order to assess the compounds’ selectivity. Our main aim was to rationalize the structural requirements of sulfonamide-containing compounds useful for targeting HpCAs, in order to gain a larger knowledge for further optimization studies focusing on isoform selectivity. In fact, although the tested human and bacterial isoforms present a low degree of sequence similarity, they catalyze the same reaction and contain the catalytically active zinc ion in the active site. Thus, a comparison of the data obtained from different members of this large superfamily has a high relevance in the field. By observing Table 1 and Table 2, interesting structure–activity relationship (SAR) considerations can be inferred.

[13] = target: T6, hCA I; assay: biochemical; conditions: read-out: Human Isoforms / hCA I
Procedure: as §1

[14] = target: T3, hCA IX; assay: biochemical; conditions: read-out: Human Isoforms / hCA IX
Procedure: as §1

[15] = target: T1, EcoβCA; assay: biochemical; conditions: read-out: Bacterial Isoforms / Eco βCA
Procedure: as §1

[16] = target: T5, PsCA3; assay: biochemical; conditions: read-out: Bacterial Isoforms / Ps CA3
Procedure: as §1

[17] = read-out: KI (nM) * / Bacterial Isoforms / Hp αCA

T4 sequence (O43570 30-289 limits assumed): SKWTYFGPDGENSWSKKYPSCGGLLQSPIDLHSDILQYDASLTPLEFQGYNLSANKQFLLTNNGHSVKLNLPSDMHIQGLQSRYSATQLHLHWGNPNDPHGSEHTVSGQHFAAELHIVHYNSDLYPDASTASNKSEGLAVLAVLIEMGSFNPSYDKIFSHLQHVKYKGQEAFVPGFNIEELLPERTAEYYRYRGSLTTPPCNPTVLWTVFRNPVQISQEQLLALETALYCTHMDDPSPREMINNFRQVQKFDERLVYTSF
T6 sequence (P00915 2-261): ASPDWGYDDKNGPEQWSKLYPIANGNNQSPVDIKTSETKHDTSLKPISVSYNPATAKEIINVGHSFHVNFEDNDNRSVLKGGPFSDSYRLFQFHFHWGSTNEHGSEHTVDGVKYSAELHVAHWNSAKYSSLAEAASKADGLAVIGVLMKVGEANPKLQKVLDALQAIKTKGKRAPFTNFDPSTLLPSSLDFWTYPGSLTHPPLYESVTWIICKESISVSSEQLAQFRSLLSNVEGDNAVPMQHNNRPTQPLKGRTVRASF
T1 sequence (P61517 whole entry, canonical isoform): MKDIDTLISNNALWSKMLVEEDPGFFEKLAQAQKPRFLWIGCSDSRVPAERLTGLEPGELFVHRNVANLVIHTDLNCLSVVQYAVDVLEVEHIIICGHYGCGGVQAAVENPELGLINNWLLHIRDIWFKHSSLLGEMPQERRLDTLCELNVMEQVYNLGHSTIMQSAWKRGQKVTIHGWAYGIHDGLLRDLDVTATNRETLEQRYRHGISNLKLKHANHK

| SMILES | Ki [1] [nM] | Ki [2] [nM] | Ki [3] [nM] | Ki [4] [nM] | Ki [5] [nM] | Ki [6] [nM] | Ki [7, 17] [nM] | Ki [8] [nM] | MBC [9] [µg/mL] | MIC [9] [µg/mL] | Ki [10] [nM] | Ki [11] [nM] | Ki ([7]; read-out: KI (nM) / Bacterial Isoforms / Hp αCA) [nM] | pKi [12] | pKi [13] | pKi [14] | pKi [15] | pKi [16] |
| --- | --- | --- | --- | --- | --- | --- | --- | --- | --- | --- | --- | --- | --- | --- | --- | --- | --- | --- |
| COc1ccc(O)c(/N=N/c2ccc(S(N)(=O)=O)cc2)c1 [4a, (E)-4-((2-hydroxy-5-methoxyphenyl)diazenyl)benzenesulfonamide] | 400 | 803 | 201 | 9.5 | 228 | 45 | 65.8 | 3440 | 32 (≈ 104 µM) | 8 (≈ 26 µM) | 74.1 | 24.1 | – | – | – | – | – | – |
| COc1cc(/N=N/c2ccc(S(N)(=O)=O)cc2)ccc1O [4b, (E)-4-((4-hydroxy-3-methoxyphenyl)diazenyl)benzenesulfonamide] | 95.8 | 1920 | 831 | 21.8 | 702 | 34.8 | 120 | 837 | 32 (≈ 104 µM) | 32 (≈ 104 µM) | 49.7 | 3.3 | – | – | – | – | – | – |
| COc1cc(O)ccc1/N=N/c1ccc(S(N)(=O)=O)cc1 [4c, (E)-4-((4-hydroxy-2-methoxyphenyl)diazenyl)benzenesulfonamide] | 96.3 | 3630 | 545 | 34.7 | 221 | 84.9 | 70.9 | 2000 | 16 (≈ 52.1 µM) | 8 (≈ 26 µM) | 17.1 | 5.4 | – | – | – | – | – | – |
| NS(=O)(=O)c1ccc(/N=N/c2ccc(O)c(C(F)(F)F)c2)cc1 [4d, (E)-4-((4-hydroxy-3-(trifluoromethyl)phenyl)diazenyl)benzenesulfonamide] | 738 | 3170 | 182 | 40.2 | 222 | 20.1 | 39 | 94.7 | 128 (≈ 371 µM) | 64 (≈ 185 µM) | 19.4 | 4.8 | – | – | – | – | – | – |
| NS(=O)(=O)c1ccc(/N=N/c2ccc(O)cc2C(F)(F)F)cc1 [4e, (E)-4-((4-hydroxy-2-(trifluoromethyl)phenyl)diazenyl)benzenesulfonamide] | 95.3 | 899 | 191 | 54.1 | 495 | 5.4 | 89.2 | 347 | 16 (≈ 46.3 µM) | 8 (≈ 23.2 µM) | 68.8 | 4.2 | – | – | – | – | – | – |
| Cc1cc(/N=N/c2ccc(S(N)(=O)=O)cc2)c(C)cc1O [4f, (E)-4-((4-hydroxy-2,5-dimethylphenyl)diazenyl)benzenesulfonamide] | 867 | 3760 | 97.1 | 56.7 | 191 | 5.7 | 69.4 | 472 | 32 (≈ 105 µM) | 32 (≈ 105 µM) | 70.6 | 1.9 | – | – | – | – | – | – |
| Cc1cc(O)cc(C)c1/N=N/c1ccc(S(N)(=O)=O)cc1 [4g, (E)-4-((4-hydroxy-2,6-dimethylphenyl)diazenyl)benzenesulfonamide] | 550 | 3670 | 171 | 63.9 | 879 | 4.9 | 142 | 939 | 32 (≈ 105 µM) | 16 (≈ 52.4 µM) | 74.3 | 3.7 | – | – | – | – | – | – |
| Cc1ccc(O)c(/N=N/c2ccc(S(N)(=O)=O)cc2)c1 [4h, (E)-4-((2-hydroxy-5-methylphenyl)diazenyl)benzenesulfonamide] | 360 | 3850 | 184 | 9.6 | 980 | 68.4 | 130 | 772 | 64 (≈ 220 µM) | 32 (≈ 110 µM) | 127 | 6.6 | – | – | – | – | – | – |
| Cc1cc(/N=N/c2ccc(S(N)(=O)=O)cc2)ccc1O [4i, (E)-4-((4-hydroxy-3-methylphenyl)diazenyl)benzenesulfonamide] | 2110 | 2070 | 181 | 7.5 | 114 | 4.4 | 140 | 6330 | 64 (≈ 220 µM) | 32 (≈ 110 µM) | 119 | 3.4 | – | – | – | – | – | – |
| CS(=O)(=O)Nc1ccc(N=Nc2ccccc2)cc1 [5i] | – | – | – | – | – | – | – | – | 32 (≈ 116 µM) | 16 (≈ 58.1 µM) | – | – | 89.8 | 5.65 | 5.22 | 6.22 | 5.16 | 5.03 |
| CC1(C)S[C@@H]2[C@H](NC(=O)[C@H](N)c3ccc(O)cc3)C(=O)N2[C@H]1C(=O)O [Amoxicillin] | – | – | – | – | – | – | – | – | 0.064 (≈ 0.175 µM) | 0.064 (≈ 0.175 µM) | – | – | – | – | – | – | – | – |
